According to US6066642A, “Dihydropyridine-, pyridine-, benzopyran-4-one- and triazoloquinazoline derivative, their preparation and their use as adenosine receptor antagonists” (priority 1998, dated 2000):

Tests used:
adenosine receptor = settings: [3H]cyclohexyladenosine and [3H]1,3-diethyl-8-phenylxanthine; cited from earlier work
adenosine receptors = settings: pancreatic islets; cited from earlier work
HL-60 cells [1] = assay: live cell counting with trypan blue (cell death/proliferation), HL-60 cells; assay type: cell-based
Experimental: (§1) The HL-60 cells were maintained in RPMI 1640 supplmented with 10% fetal calf serum, 100 units/ml penicillin, […] streptomycin and 2 mM L-glutamine. The cells were split every third day, and 2 days before each experiment cultures were diluted to 2×10^5 cells/ml. For analysis of DNA content, aliquots of 2 ml were placed into 12-well flat-bottomed plates (Costar, Cambridge, Mass., U.S.A.) containing 2~6 μl test-compound solutions at defined concentrations or 6 μl DMSO (diluting medium). Live cell counting was carried out using 0.1% trypan blue.
(§2) In the latter assay, cell death was studied in HL-60 cells (FIGS. 11A-B) and in U-937 cells (FIGS. 11C-D) over a time course of 9 days. Cells in culture receiving no drug treatment proliferated geometrically until nearly the end of the experiment.

U-937 cells [2] = assay: live cell counting with trypan blue (cell death/proliferation), U-937 cells; assay type: cell-based
Experimental: as §1, §2

HL-60 cells [3] = assay: in situ end-labeling of fragmented nuclear DNA (TUNEL), HL-60 cells; assay type: cell-based
Experimental: (§3) Cells were fixed by immersing slides in 4% methanol-free formaldehyde in PBS at pH 7.4, 4° C., for 25 min. Fixed cells were permeabilized in 0.2% Triton® X-100 in PBS at 4° C. for 5 min. After preincubation with […] Promega equilibration buffer for 10 min at room temperature, the cells were covered with 50 μl TdT incubation buffer and a coverslip and maintained at 37° C. for 60 min inside the dark humidified chamber to protect from dry and direct light. In order to stop the reaction, the coverslip was removed and the slides were immersed in 2×SSC for 15 min at room temperature. The cells were restained by propidium iodide 1 μg/ml in PBS for 15 min. After every step, the cells were rinsed 2-3 times with fresh PBS for 5 min each. Finally, the glass slides were sealed with nail polish. The slides were stored at 4° C. in the dark.
(§4) The evidence that DNA strand breaks, characteristic of apoptosis, are induced by the A3 antagonists was obtained using in situ end-labelingin-situ of fragmented nuclear DNA by terminal deoxynucleotidyl transferase (TUNEL method, Cooke, H., Trends in Biotech., 10, 23 (1992)), which incorporates a fluorescent label at the 3'-ends. […] In the control cultures and in those treated with 10 nM Cl-IB-MECA alone, spontaneous apoptosis occured in only 5-7% of the cells (Table 17). […] The reversal of antagonist-induced apoptosis by the agonist is similar to that observed for the growth curves, except that both agonist and antagonist were applied at lower concentrations.

U-937 cells [4] = assay: in situ end-labeling of fragmented nuclear DNA (TUNEL), U-937 cells; assay type: cell-based
Experimental: as §3, §4

[5] = system: bak protein in HL-60 cells; assay: expression of apoptosis-inducing protein bak by immunofluorescence, HL-60 cells; assay type: cell-based; settings: 24 hours
Experimental: (§5) Cells were fixed as following steps: 10 min with 1% formalin in PBS, 5 min with […] methanol and 2 min with ice cold acetone, then permebilized with 0.1% Nonidet P-40 for 20 min. After the preparation, the specimens were incubated step by step: 10% goat serum in PBS for 20 min, mouse monoclonal anti-bak antibody (5 μg/ml PBS-BSA) for 60 min, Rhodamine (TRITC)-conjugated AffiniPure Goat Anti-mouse IgG (H+L) in PBS-BSA for 60 min. The specimens were washed 3-5 times with PBS after every step. The glass slides were stored at 4° C. in the dark.
(§6) The mechanism of the apoptosis observed in response to either A3 agonists was investigated.

[6] = system: bak protein in U-937 cells; assay: expression of apoptosis-inducing protein bak by immunofluorescence, U-937 cells; assay type: cell-based; settings: 24 hours
Experimental: as §5, §6

[7] = antagonist 0.5 μM plus 0.01 or 1.0 μM Cl-IB-MECA
[8] = Table 17, antagonist 50 nM plus Cl-IB-MECA 10 nM, 48 hour
[9] = Table 17, antagonist 50 nM, 48 hour

**Q.** Which “effect on adenosine receptor binding” value (adenosine receptor) does the source give for `COC(=O)C1=C(C)NC(C)=C(C(=O)OC)C1c1ccccc1[N+](=O)[O-]` [Compound 60, nifedipine] here?
**A.** The value was “potent in reducing the binding”.

**Q.** And the “interaction with adenosine receptors mediating inhibition of insulin secretion” value (adenosine receptors)?
**A.** Its value is “may not interact with adenosine receptors”.

**Q.** What does the source list for `CN1C=CC2=C(CC(=O)O)Cn3nc(-c4ccccc4)nc3C2=C1` [Compound L-249313, 6-carboxymethyl-5,9-dihydro-9-methyl-2-phenyl-[1,2,4]triazolo[5,1-a][2,7]-naphthyridine]?
**A.** inhibition of proliferation, HL-60 (HL-60 cells [1]; 0.5 μM alone): general inhibition of proliferation of cells; growth curve with A3 antagonist plus Cl-IB-MECA, HL-60 (HL-60 cells [1]; [7]): the growth curves were nearly coincident with control curves; inhibition of proliferation, U-937 (U-937 cells [2]; 0.5 μM alone): general inhibition of proliferation of cells; growth curve with A3 antagonist plus Cl-IB-MECA, U-937 (U-937 cells [2]; [7]): the growth curves were nearly coincident with control curves; fluorescent labeling of apoptotic cells, HL-60 (HL-60 cells [3]; 50 nM, 24 h, approximately): 30-40%; Percentage of apoptotic cells, HL-60, + Cl-IB-MECA (HL-60 cells [3]; [8]): 12.0 Percentage; Percentage of apoptotic cells, HL-60 (HL-60 cells [3]; [9]): 31.2 Percentage; fluorescent labeling of apoptotic cells, U-937 (U-937 cells [4]; 50 nM, 24 h, approximately): 30-40%; Percentage of apoptotic cells, U937, + Cl-IB-MECA (U-937 cells [4]; [8]): 10.9 Percentage; Percentage of apoptotic cells, U937 (U-937 cells [4]; [9]): 30.8 Percentage; bak labeling, HL-60 [5]: present; bak labeling, U-937 [6]: present

**Q.** For `COc1ccc([C@@H]2Sc3ccccc3N(CCN(C)C)C(=O)[C@@H]2OC(C)=O)cc1` [diltiazem], which “effect on adenosine receptor binding” value (adenosine receptor) is on record?
**A.** Its value is “negligible effects on adenosine receptor binding”.

**Q.** With `COc1ccc(CCN(C)CCCC(C#N)(c2ccc(OC)c(OC)c2)C(C)C)cc1OC` (centres unmarked) [verapamil] as the molecule, how does the “effect on adenosine receptor binding” value (adenosine receptor) read?
**A.** Its value is “negligible effects on adenosine receptor binding”.

**Q.** And the “interaction with adenosine receptors mediating inhibition of insulin secretion” value (adenosine receptors)?
**A.** The value was “may not interact with adenosine receptors”.
